# Assay results: US4603142A, “Cholesterol lowering method of use” (Wisconsin Alumni Research Foundation, priority 1984, dated 1986)
# Columns and labels:
# [1] = Serum lipids in 3-week-old broiler male chickens fed supplemented corn diet; type: in vivo, chicken; details: for Concentration in Serum Chol-LDL, percentage of control / Concentration in Serum Total Cholesterol, percentage of control / Concentration in Serum Chol-LDL / Concentration in Serum HDL-Chol. / Concentration in Serum Total Cholesterol: fed 3 weeks
# Source text: (§1) These responses were attributed to the presence in the small grains of relatively high concentrations of beta-D-glucans and pentosans. A long-standing interest in lipid metabolism prompted us to examine certain lipogenic and cholesterolgenic enzymes in the tissues of these birds. Methods used for handling blood samples, preparing subcellular fractions of liver and assay procedures for beta-hydroxy-beta-methylglutaryl coenzyme A (HMG Co-A) reductase, fatty acid synthetase (FAS), plasma cholesterol and triglycerides and the statistical treatment of the data have been described [Qureshi AA et al. (1980): Regulation of lipid metabolism in chicken livers by dietary cereals, J Nutr 110:388-393].
# For large scale preparation of these compounds, 10 grams of the petroleum ether soluble fraction of HPBF were dissolved in 10 ml petroleum ether and applied to a 90×3.5 cm silicic acid column (Bio-Silica, 100-200 mesh). The column was washed with 2,500 ml petroleum ether followed by stepwise elution with increasing amounts of ether in petroleum ether. Fraction 8 of the column corresponded to HPLC fraction 5. A concentration-dependent suppression of HMG Co-A reductase activity and enhancement of FAS activity was noted within this range. Serum total and LDL cholesterol levels also fell in a dose-dependent response. […] In a companion experiment, using the same control birds, the effect of cholesterol inhibitor I at 5 ppm is compared to the effect of the petroleum ether solubles of HPBF at 20% equivalent on weight gain, HMG Co-A reductase and FAS activities, serum cholesterol and serum triglyceride levels (Table 2). […] Serum triglyceride levels reflected the influence of the diet on FAS activity. […] Cholesterol inhibitor I was a more powerful suppressor of LDL cholesterol (Table 2).
# ^1 Feeding period was 3 weeks; Time of killing was 0800; Data
# expressed as mean ± SD; N = 9 chickens per group; HMGCoA reductase =
# [2] = Serum lipids in 13-week-old WLH male chickens; type: in vivo, chicken; details: 20 ppm in corn diet, fed four weeks
# Source text: as §1
# (§2) Cholesterol inhibitor I was re-chromatographed by HPLC and the UV absorption spectrum obtained. Maximum absorption occurred at 292 nm. This purified fraction was used for high resolution mass spectrometric analysis. Several scans were made using ionization temperatures from 90-180 degrees Centigrade to increase the possibility of detecting impurities. The high resolution mass spectrometric analysis and measurements of different peaks gave a molecular ion peak at m/e 424 and main peaks at m/e 385, 205 and 165 corresponding to C29 H44 O2 (molecular formula) C25 H36 O2, C13 H17 O2 and C10 H13 O2 moieties, respectively, which are characteristic fragmentation moieties for d-alpha-tocotrienol. Lemon grass oil is a rich source of d-alpha-tocotrienol. This product and cholesterol inhibitor I at 20 ppm were compared with the petroleum ether soluble fraction of HPBF (20% equivalent HPBF) in a group of older male White Leghorn chickens (Table 3). The results shown on Table 3 confirm those previously recorded for petroleum ether solubles of HPBF and cholestrol inhibitor I. In a final experiment, the effects of cholestrol inhibitor I and lemon grass oil on hepatocyte HMG Co-A reductase and FAS activities were tested. Both components tested in the concentration range 5-100 microgram/ml, produced a concentration-dependent suppression of HMG Co-A reductase and concentration-dependent enhancement of FAS activity (Table 4).
# ^1 Feeding period was four weeks; Time of killing was 0800; Data
# expressed as mean ± SD; N = 8 chickens per group; HMGCoA reductase =
# Fatty Acid Synthetase = test: In vitro fatty acid synthetase activity in isolated hepatocytes of chicken; type: cell-based; details: incubation 15 minutes; for Fatty Acid Synthetase: means of two replicates
# Source text: These observed effects on lipogensis and cholesterogenesis could be attributed to the chemical constituents of HPBF, but clearly could not be attributed to the water insoluble plant fibers because they were not present in the latter feeding trials. Moreover, these effects were also obtained in vitro using isolated hepatocytes from chickens and rats. […] Proc. 42:1973 (Abstr.)]. Conditions for the in vitro evaluation of the solvent extracts have been described [Qureshi AA et al. (1983): Inhibition of cholesterol and fatty acid biosynthesis in liver enzymes and chicken hepatocytes by polar fractions of garlic, Lipids 18:343-348].
# as §2
# ^1 Tenweek-old female chickens were fed standard cornsoy diet. They
# were fasted for 48 hrs. and refed 72 hrs. prior to the preparation of
# ^2 Incubation period was 15 minutes. Values represent means of two
# replicates within incubation set.
# ^4 nmoles of NADPH oxidized per minute per mg of cytosolic fraction.
# FAS = biological target: T1, FAS (Gallus gallus, UniProt P12276); test: HPLC fractions checked in vitro for effect on FAS in isolated hepatocytes; type: cell-based; details: HPLC fractions of petroleum ether solubles
# T1 construct: activity in isolated hepatocytes; endogenous in cells; host or cells: isolated hepatocytes
# [3] = 2.5 ppm in corn diet, mean ± SD, N = 9
# [4] = 5.0 ppm in corn diet, mean ± SD, N = 9
# [5] = 10.0 ppm in corn diet, mean ± SD, N = 9
# [6] = 15.0 ppm in corn diet, mean ± SD, N = 9
# [7] = 20.0 ppm in corn diet, mean ± SD, N = 9
# [8] = corn diet + 5 ppm (Table 2), mean ± SD, N = 9
# T1 sequence (P12276 2-2512 limits assumed): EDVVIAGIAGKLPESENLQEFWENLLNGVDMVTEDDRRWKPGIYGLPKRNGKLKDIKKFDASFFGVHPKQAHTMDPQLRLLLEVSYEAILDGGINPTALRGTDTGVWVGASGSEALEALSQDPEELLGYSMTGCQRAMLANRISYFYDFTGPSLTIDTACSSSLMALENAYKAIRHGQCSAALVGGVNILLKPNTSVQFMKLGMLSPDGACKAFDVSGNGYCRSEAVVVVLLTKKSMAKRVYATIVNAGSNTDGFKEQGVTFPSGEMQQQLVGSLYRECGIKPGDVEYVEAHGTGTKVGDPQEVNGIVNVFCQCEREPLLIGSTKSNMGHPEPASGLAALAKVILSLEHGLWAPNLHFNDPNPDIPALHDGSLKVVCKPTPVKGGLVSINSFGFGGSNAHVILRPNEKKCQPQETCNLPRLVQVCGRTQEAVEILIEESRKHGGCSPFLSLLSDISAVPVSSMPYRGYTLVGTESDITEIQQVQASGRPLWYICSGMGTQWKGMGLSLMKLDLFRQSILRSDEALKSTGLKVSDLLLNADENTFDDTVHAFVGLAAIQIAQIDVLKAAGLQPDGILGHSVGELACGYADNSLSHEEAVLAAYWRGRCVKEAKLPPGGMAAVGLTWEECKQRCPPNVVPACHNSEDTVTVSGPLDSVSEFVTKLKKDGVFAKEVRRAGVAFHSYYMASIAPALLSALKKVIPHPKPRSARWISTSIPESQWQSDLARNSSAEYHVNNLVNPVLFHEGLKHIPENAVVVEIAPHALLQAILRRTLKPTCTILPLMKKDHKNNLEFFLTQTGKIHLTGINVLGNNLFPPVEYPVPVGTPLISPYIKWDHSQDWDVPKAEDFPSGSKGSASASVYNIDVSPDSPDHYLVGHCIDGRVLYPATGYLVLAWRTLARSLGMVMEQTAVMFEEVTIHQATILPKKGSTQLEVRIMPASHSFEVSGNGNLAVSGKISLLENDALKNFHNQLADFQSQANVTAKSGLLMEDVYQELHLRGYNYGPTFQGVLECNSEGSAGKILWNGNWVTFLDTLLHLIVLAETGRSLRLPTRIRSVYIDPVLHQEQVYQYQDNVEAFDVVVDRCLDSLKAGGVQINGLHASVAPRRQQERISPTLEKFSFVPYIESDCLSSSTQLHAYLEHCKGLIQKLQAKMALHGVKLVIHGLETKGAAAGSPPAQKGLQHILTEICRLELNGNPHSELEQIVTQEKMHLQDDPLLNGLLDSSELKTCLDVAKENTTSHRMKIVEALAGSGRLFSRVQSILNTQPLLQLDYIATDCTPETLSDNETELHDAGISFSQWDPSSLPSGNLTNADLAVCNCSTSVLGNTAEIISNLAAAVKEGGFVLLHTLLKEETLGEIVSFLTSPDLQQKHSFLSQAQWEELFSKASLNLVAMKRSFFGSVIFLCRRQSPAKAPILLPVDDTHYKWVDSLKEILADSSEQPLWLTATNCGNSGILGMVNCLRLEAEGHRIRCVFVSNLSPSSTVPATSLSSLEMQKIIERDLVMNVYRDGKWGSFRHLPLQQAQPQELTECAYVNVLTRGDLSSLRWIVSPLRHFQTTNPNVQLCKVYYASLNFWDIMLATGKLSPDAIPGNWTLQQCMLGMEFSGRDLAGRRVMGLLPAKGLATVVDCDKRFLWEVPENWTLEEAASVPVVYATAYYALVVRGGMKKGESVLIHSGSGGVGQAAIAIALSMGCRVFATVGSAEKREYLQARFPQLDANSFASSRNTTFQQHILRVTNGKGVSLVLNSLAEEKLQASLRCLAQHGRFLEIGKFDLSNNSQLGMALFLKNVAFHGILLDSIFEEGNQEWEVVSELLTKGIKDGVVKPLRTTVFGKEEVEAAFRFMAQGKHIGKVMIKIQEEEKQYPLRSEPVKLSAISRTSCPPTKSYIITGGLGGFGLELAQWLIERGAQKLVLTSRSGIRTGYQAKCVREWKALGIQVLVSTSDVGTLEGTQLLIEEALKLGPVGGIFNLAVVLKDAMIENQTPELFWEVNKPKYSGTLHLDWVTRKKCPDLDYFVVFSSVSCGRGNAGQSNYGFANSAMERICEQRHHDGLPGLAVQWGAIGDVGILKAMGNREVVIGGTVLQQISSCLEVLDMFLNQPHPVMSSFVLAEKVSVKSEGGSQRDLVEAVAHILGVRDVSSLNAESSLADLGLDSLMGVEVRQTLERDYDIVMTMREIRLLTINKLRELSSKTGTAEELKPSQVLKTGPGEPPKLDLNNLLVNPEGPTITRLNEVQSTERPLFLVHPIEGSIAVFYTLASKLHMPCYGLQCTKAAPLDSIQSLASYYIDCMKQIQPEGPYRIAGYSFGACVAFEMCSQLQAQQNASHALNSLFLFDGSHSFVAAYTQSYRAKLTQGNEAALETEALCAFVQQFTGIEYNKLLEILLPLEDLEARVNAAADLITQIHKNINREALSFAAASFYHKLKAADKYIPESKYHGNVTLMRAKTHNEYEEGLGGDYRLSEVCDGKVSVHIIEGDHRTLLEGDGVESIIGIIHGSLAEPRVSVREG
smiles,measurement,setting,value
"CC(C)=CCC/C(C)=C/CC/C(C)=C/CC[C@]1(C)CCc2c(C)c(O)c(C)c(C)c2O1 [Cholesterol inhibitor I, 2,5,7,8-tetramethyl-2 (4,8, 12-trimethyltrideca-3,7, 11-trienyl)chroman-6-ol]","Concentration in Serum Chol-LDL, percentage of control",[1]; 2.5 ppm in corn diet,90 Percentage of respective contr
same,"Concentration in Serum Total Cholesterol, percentage of control",[1]; 2.5 ppm in corn diet,94 Percentage of respective contr
same,Concentration in Serum Chol-LDL,[1]; [3],73 ± 5 mg/100 ml
same,Concentration in Serum HDL-Chol.,[1]; [3],54 ± 6 mg/100 ml
same,Concentration in Serum Total Cholesterol,[1]; [3],152 ± 10 mg/100 ml
same,Level of cholesterol transported in the high-density lipoprotein fraction (HDL),"[1]; 2.5 to 20 ppm, Table 1",not influenced
same,"Concentration in Serum Chol-LDL, percentage of control",[1]; 5.0 ppm in corn diet,74 Percentage of respective contr
same,"Concentration in Serum Total Cholesterol, percentage of control",[1]; 5.0 ppm in corn diet,89 Percentage of respective contr
same,Concentration in Serum Chol-LDL,[1]; [4],60 ± 4 mg/100 ml
same,Concentration in Serum HDL-Chol.,[1]; [4],51 ± 4 mg/100 ml
same,Concentration in Serum Total Cholesterol,[1]; [4],144 ± 8 mg/100 ml
same,"Concentration in Serum Chol-LDL, percentage of control",[1]; 10.0 ppm in corn diet,67 Percentage of respective contr
same,"Concentration in Serum Total Cholesterol, percentage of control",[1]; 10.0 ppm in corn diet,78 Percentage of respective contr
same,Concentration in Serum Chol-LDL,[1]; [5],54 ± 4 mg/100 ml
same,Concentration in Serum HDL-Chol.,[1]; [5],52 ± 5 mg/100 ml
same,Concentration in Serum Total Cholesterol,[1]; [5],125 ± 7 mg/100 ml
same,"Concentration in Serum Chol-LDL, percentage of control",[1]; 15.0 ppm in corn diet,64 Percentage of respective contr
same,"Concentration in Serum Total Cholesterol, percentage of control",[1]; 15.0 ppm in corn diet,76 Percentage of respective contr
same,Concentration in Serum Chol-LDL,[1]; [6],52 ± 5 mg/100 ml
same,Concentration in Serum HDL-Chol.,[1]; [6],50 ± 6 mg/100 ml
same,Concentration in Serum Total Cholesterol,[1]; [6],122 ± 6 mg/100 ml
same,"Concentration in Serum Chol-LDL, percentage of control",[1]; 20.0 ppm in corn diet,47 Percentage of respective contr
same,"Concentration in Serum Total Cholesterol, percentage of control",[1]; 20.0 ppm in corn diet,65 Percentage of respective contr
same,Concentration in Serum Chol-LDL,[1]; [7],38 ± 5 mg/100 ml
same,Concentration in Serum HDL-Chol.,[1]; [7],48 ± 5 mg/100 ml
same,Concentration in Serum Total Cholesterol,[1]; [7],105 ± 8 mg/100 ml
same,Serum Cholesterol HDL-Chol.,[1]; [8],48 ± 5 mg/dL
same,Serum Cholesterol LDL-Chol.,[1]; [8],38 ± 5 mg/dL
same,Serum Cholesterol Total-Chol.,[1]; [8],105 ± 11 mg/dL
same,Serum Triglycerides,[1]; [8],174 ± 6 mg/dL
same,"Concentration in Serum LDL-Chol., percentage of control",[2],66 Percentage of respective contr
same,Concentration in Serum HDL-Chol.,"[2]; mean ± SD, N = 8",58 ± 3 mg/100 ml
same,Concentration in Serum LDL-Chol.,"[2]; mean ± SD, N = 8",44 ± 3 mg/100 ml
same,Concentration in Serum Total Cholesterol,"[2]; mean ± SD, N = 8",103 mg/100 ml
same,"Fatty Acid Synthetase, percentage of control",Fatty Acid Synthetase; 5 μg/ml,122 Percentage of respective contr
same,Fatty Acid Synthetase,Fatty Acid Synthetase; 5 μg/ml,88 nmoles of NADPH oxidized per m
same,"Fatty Acid Synthetase, percentage of control",Fatty Acid Synthetase; 10 μg/ml,135 Percentage of respective contr
same,Fatty Acid Synthetase,Fatty Acid Synthetase; 10 μg/ml,97 nmoles of NADPH oxidized per m
same,"Fatty Acid Synthetase, percentage of control",Fatty Acid Synthetase; 15 μg/ml,156 Percentage of respective contr
same,Fatty Acid Synthetase,Fatty Acid Synthetase; 15 μg/ml,112 nmoles of NADPH oxidized per m
same,"Fatty Acid Synthetase, percentage of control",Fatty Acid Synthetase; 20 μg/ml,175 Percentage of respective contr
same,Fatty Acid Synthetase,Fatty Acid Synthetase; 20 μg/ml,126 nmoles of NADPH oxidized per m
same,"Fatty Acid Synthetase, percentage of control",Fatty Acid Synthetase; 25 μg/ml,188 Percentage of respective contr
same,Fatty Acid Synthetase,Fatty Acid Synthetase; 25 μg/ml,135 nmoles of NADPH oxidized per m
same,"Fatty Acid Synthetase, percentage of control",Fatty Acid Synthetase; 50 μg/ml,188 Percentage of respective contr
same,Fatty Acid Synthetase,Fatty Acid Synthetase; 50 μg/ml,148 nmoles of NADPH oxidized per m
same,"Fatty Acid Synthetase, percentage of control",Fatty Acid Synthetase; 100 μg/ml,214 Percentage of respective contr
same,Fatty Acid Synthetase,Fatty Acid Synthetase; 100 μg/ml,154 nmoles of NADPH oxidized per m
same,Effect on activities of FAS,FAS,significant increase
